From patent publication US20250320443A1, “Human Brain Organoid, methods for making the brain organoid, and methods of using the brain organoid for high throughput rapid screening and/or evaluation of agents” (NeyroblastGX LLC, priority 2023, published 2025)

Experiments:
[1] = test system: blood CSF barrier brain OrG (ChP OrG); assay: ChP OrG drug permeability into CSF (optical density of collected CSF); type: cell-based, human; conditions: 72 h, SLCP Cur 500 μM, CSF collected via syringe
Procedure: (§1) FIG. 6A-6H. ChP OrG efficiently screens drug permeability. (FIG. 6A) We have used curcumin (Cur), a natural polyphenolic antioxidant that can disaggregate Amyloid beta (AB) and tau. (FIG. 6B) We have prepared the Cur with H2O and lipids to generate a solid lipid curcumin particle (SLCP). […] (FIG. 6D-6F) We added SLCP and non-formulated (H2O dissolved) Cur to the blood CSF barrier brain OrG (ChP OrG) for 72 h and obtained images. (FIG. 6G) We then collected CSF via a syringe and processed it to measure optical density using a plate reader to determine whether SLCP Cur (500 μM) was permeable into CSF. […] Our novel B-CSFb grown on an HT electrode plate is highly efficient in studying drug permeability on the HT scale and provides insight into using our ChP OrG to accelerate the drug development process for various CNS diseases. Scale bar 100 μm.
To generate ChP OrG, we use methods similar to those used to generate cCerebral OrG, except for the composition of OrGspheroid SRB media, which contained 50% KSR, 0.1% lipid-rich albumin (AlbuMAX), including all other components as stated in Example 1. For ChP OrG, neural induction was up to 9 days. Neural induction medium was the same as Example 2. Further, neural-induced OrGspheroid (>500 μm) was seeded with gel-matrix domes with a volume of OrGspheroid to MvECs at a 1:20 ratio. […]

[2] = Preparation of curcumin with H2O (visual); type: physicochemical; conditions: glass vial, non-formulated
Procedure: as §1

brain OrG = assay: NGL HT electrode plate signal of brain OrG; type: cell-based, human; conditions: 64000 Hz
Excerpt: HT electroconductive sensing array combined with our optimized brain OrG is the first innovative technology that can be marketed for floating brain OrG for screening pathogens, drugs, and toxicity at a rapid and robust scale. Brain OrG-specific shape 1-3 mm range grown on an electroconductive plate designed and developed by NGL with pay-based service to obtain ECIS base electrode with a desired signal with or without agents. ECIS here refers to electric cell-substrate impedance sensing. We first developed 8 well plates with an electrode. […] We used a nanofarads capacitance (nF) signal curve at 64000 Hz. We determined that the media sample (without OrG, baseline) average signal is 3.7 nF compared to cerebral OrG (˜2 nF), and the same measurement was also acquired by resistance (Ohms).
To determine HT screening various agents, we designed and developed a next-generation HT electrode plate where brain OrG can grow in floating conditions with electrode chambers that can control OrG size without batch-to-batch variations. To develop these electrode sensor chambers (FIG. 7A-7B), we have designed and developed a typical 8×12 configuration that allows 96 samples to be measured and can be upgraded to 384 wells. […] These converters will sample at four times the excitation frequency, thus allowing both the amplitude and phase of the signal at V1 to V2 be measured with an algorithm.

[3] = test system: synaptophysin and PSD-95 in cCerebral OrG; assay: ICC of synaptic marker proteins in cCerebral OrG injected with AD toxic proteins; type: cell-based, human; conditions: AB or tau alone, injected twice with 10-50 μl (1 mg/ml)
Procedure: FIG. 8A-8D. Verify compatibility to screening NGL ready-to-use brain OrG in other screening platforms with multiple agents. (FIG. 8A) NGL cCerebral was injected twice with 10-50 μl (1 mg/ml) of Alzheimer's disease (AD) toxic proteins (AB and tau oligomers). (FIG. 8B) We found AB and tau together, especially 50 μg concentration, reduced in higher levels of pre- and post-synaptic density marker proteins (synaptophysin and PSD-95) compared to 10 μg concentrations using ICC. […] (FIG. 8C) We compared synaptic loss with the electrode plate signal developed by Applied Biophysics (ABP). We have plated our cCerebral OrG onto ABP electrodes with gel-matrix twice coating to attach efficiently onto cCerebral OrG onto electrodes. Usually, marketed electrode attaching floating OrG tends to be challenging. OrG often slips or moves away from the electrode, thus needing twice or triple-coating layers with gels, providing a great insight into our floating electrode plate novelty compared to other marketed electrodes. After the cCerebral OrG attachment was maintained and grown on the electrode plate for one week and treated with or without the combination of AB and tau (10 and 50 μg).
ICC is a common cellular protein or antigen-detecting and visualization technique that can recognize the target of interest or specific marker expression in cells via quantification imaging. […]

COc1cc(/C=C/C(=O)CC(=O)/C=C/c2ccc(O)c(OC)c2)ccc1O [non-formulated Cur, curcumin]
Cur concentration in CSF (permeable into CSF / B-CSFb) [1]: not detected in CSF
Cur concentration in CSF (permeable into CSF / B-CSFb) ([1]; listed as unformulated Cur): undetected in CSF
behaviour when prepared with H2O [2]: precipitated on the bottom of the glass vial

AB: synthetic amyloid-beta (AB) oligomers, Alzheimer's disease toxic protein
brain OrG-derived toxic response signal compared to untreated brain OrG (brain OrG): significantly and sensitively differentiated
synaptic proteins (synaptophysin and PSD-95) [3]: unable to significantly reduce synaptic proteins
